Where two headings read alike, the source gives them in different places. Bridge positions count the residues as written; N and C are the ends. Square brackets hold non-standard residues; d marks the D form. Peptide text beside a SMILES is read from it. Phe(4-COOH) = N[C@@H](Cc1ccc(C(=O)O)cc1)C(=O)O; Bip = N[C@@H](Cc1ccc(-c2ccccc2)cc1)C(=O)O; d(hPhe) = N[C@H](CCc1ccccc1)C(=O)O; βAla = NCCC(=O)O
Assays:
[1] = target: T1, TNFα / TNFα receptor (TNFα R1/Fc) (Homo sapiens, UniProt P01375); experiment: Inhibition of binding of TNFα to the TNFα receptor (plate ELISA competition); settings: Table 2
T1 construct: purchased R&D Systems
T1 sequence (P01375 77-233 limits assumed, species assumed): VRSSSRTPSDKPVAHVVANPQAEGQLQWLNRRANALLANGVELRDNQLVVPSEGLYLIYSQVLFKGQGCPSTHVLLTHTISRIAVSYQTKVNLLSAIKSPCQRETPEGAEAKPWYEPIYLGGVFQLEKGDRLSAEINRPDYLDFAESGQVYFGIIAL
Procedure, shortened: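 Compound dilutions were preincubated 30 min at RT with 8.33 nM TNFα R1/Fc in PBST with 2% DMSO, then added to wells coated with 15 nM TNFα for 30 min. Bound receptor was detected with HRP anti-human Fc and TMB, read as A450.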

[2] = test system: TNF-α (degradation of IkB in HeLa cells or A431 cells); experiment: Human cell-based assay: inhibition of TNF-α induced degradation of IkB; settings: for inhibition at 5 µM: read-out: Inhibition at Various Compound Concentrations, 5 μM; for inhibition at 10 µM: read-out: Inhibition at Various Compound Concentrations, 10 μM
Procedure: We used a human cell-based assay to determine the TNF-α antagonistic activity of the compounds of this invention based upon the ability of the compounds to inhibit the degradation of IkB in those cells. The assay was performed on either HeLa cells or A431 cells.
On Day 1, wells of a 24-well tissue culture plate were seeded with cells that had been harvested from cultures in T-75 flasks by standard trypsin/EDTA treatment. The harvested cells were suspended in EMEM/10% FBS/P/S (100,000 HeLa cells/mL or 200,000 A431 cells/mL) and 1 mL aliquots were placed into each well. The cells were incubated overnight at 37° C. in a humidified CO2 incubator. On day 2, the cells were approximately 95% confluent.
Test and control compounds were diluted to a 1 mM solution by dilution in DMSO. The assay was run in Costar tubes. Into each tube was placed 2.5 or 5.0 μL of test compound (for testing 5 μM and 10 μM concentrations, respectively), 2.5 μL of 100× TNF-α solution (200 ng/mL TNF-α in EMEM containing 1μg/mL cycloheximide) and, for those tubes containing 2.5 μL of compound, an additional 2.5 μL of DMSO. To each tube was then added 0.5 mL of EMEM containing 1μg/mL cycloheximide. Negative control tubes contained either a) no compound, or b) no TNF-α. Tubes were then incubated for 30 minutes at room temperature.
Once incubation had begun, the media was aspirated from the cells in the 24-well plates. Sufficient EMEM/10% FBS/P/S containing 1 ug/mL cycloheximide was then added to cover the cells (approximately 3 mL) and the cells were retuned to the 37° C. humidified CO2 incubator until compound incubation was completed. The media was then aspirated from the cells, 0.2 mL of the compound solution was added and the cells re-incubated at 37° C. for 30 minutes. The plates were then placed on ice, the compound solution was aspirated from each well, and the cells washed once with 1 mL of cold PBS. Cells were then fixed with 500 μL of 3.7% formaldehyde in PBS (“fix solution”) for 20 minutes at room temperature. The fix solution was decanted and the cells permeabilized by 4× washing with 500 uL PBS/0.1% Triton X-100. After the final permeabilization wash, the cells were treated with 500 uL of Odyssey blocking buffer (OBB) and incubated at room temperature with shaking for 90 minutes.
The OBB was decanted and then to each well was then added 125 μL each of mouse anti-IkB CST#4814 (diluted 1:200 in OBB) and rabbit anti-beta-tubulin CST#2146 (diluted 1:200 in OBB). Plates were sealed with parafin and incubated overnight at room temperature with shaking.
On day 3, the antibody solution was removed from the cells and the cells were washed 5× with 0.5 mL PBST for five minutes each on a shaker. To each well was then aded 125 μL of a secondary antibody solution containing goat anti-mouse IgG-IRDye 800 and goat anti-rabbit IgG-IRDye (each diluted 1:500 in OBB+0.2% Tween 20). The plates were covered with aluminum foil and incubated for 1 hour at room temperature with shaking. The secondary antibody solution was removed and the cells washed 3× with 0.5 mL PBST for five minutes each on a shaker. Cells were then scanned by LICOR with the following settings: 700 intensity=6.0, 800 intensity=6.5; microplate2 settings with 3.0 mm offset; 169 resolution. LICOR values were fitted to an equation for a sigmoidal curve and IC50 values calculated from the fitted parameters. […] Blank cells indicate that the compound was not tested at that concentration. Certain compounds that were tested more than once and the values reflect the average of the multiple tests.

[3] = read-out: Activity (IC50, inhibition of TNFα binding to TNFα R1/Fc)
[4] = 5 μM compound, HeLa or A431 cells
[5] = 10 μM compound, HeLa or A431 cells
[6] = Activity (IC50, inhibition of TNFα binding to TNFα R1/Fc)

Row | Structure (SMILES) | IC50 [1, 3] [µM] | inhibition at 5 µM [2, 4] [%] | inhibition at 10 µM [2, 5] [%] | IC50 [1, 6] [µM] | inhibition at 5 µM [2] [%] | inhibition at 10 µM [2] [%]
1 | O=C1N[C@H](CCc2ccccc2)C(=O)N[C@@H](C(=O)O)Cc2ccc(cc2)NC(=O)[C@H](O)[C@@H](O)C(=O)N[C@H](Cc2ccccc2)C(=O)N[C@H]1Cc1ccc(Cl)cc1Cl [Compound 239] | < 10 | < 10 | < 10 | – | – | –
2 | O=C1CCNC(=O)c2ccc(cc2)C[C@@H](C(=O)O)NC(=O)[C@@H](Cc2ccccc2)NC(=O)[C@H](Cc2ccc(-c3ccccc3)cc2)NC(=O)[C@@H](CCc2ccccc2)N1 [Compound 248] ([βAla][d(hPhe)][Bip][dF][Phe(4-COOH)]-OH; lactam N-5) | < 10 | < 10 | 10 to 50 | – | – | –
3 | O=C(O)[C@H](Cc1ccccc1)NC(=O)[C@@H]1Cc2ccc(cc2)NC(=O)[C@H](O)[C@@H](O)C(=O)N[C@H](Cc2ccc(F)c(F)c2)C(=O)N[C@@H](Cc2ccc(-c3ccccc3)cc2)C(=O)N[C@H](Cc2ccccc2)C(=O)N1 [Compound 282] | < 10 | 50 to 80 | 10 to 50 | – | – | –
4 | O=C(O)[C@@H]1Cc2ccc(cc2)NC(=O)[C@H](O)[C@@H](O)C(=O)N[C@H](Cc2cccs2)C(=O)N[C@@H](Cc2ccc(-c3ccccc3)cc2)C(=O)N[C@H](CCc2ccccc2)C(=O)N1 [Compound 289] | < 10 | < 10 | < 10 | – | – | –
5 | O=C(O)[C@@H]1Cc2ccc(cc2)NC(=O)[C@H](O)[C@@H](O)C(=O)N[C@H](Cc2cccs2)C(=O)N[C@@H](Cc2ccc(-c3ccccc3)cc2)C(=O)N[C@@H](CCc2ccccc2)C(=O)N1 [Compound 290] | < 10 | < 10 | < 10 | – | – | –
6 | O=C1COc2ccc(cc2)C[C@@H](C(=O)NC2(C(=O)O)CC2)NC(=O)[C@@H](CCc2ccccc2)NC(=O)[C@H](Cc2ccc(-c3ccccc3)cc2)NC(=O)[C@@H](Cc2cccs2)N1 [Compound 299] | – | – | – | < 10 | < 10 | < 10
7 | O=C1COc2ccc(cc2)C[C@@H](C(=O)N[C@@H](Cc2ccc(O)cc2)C(=O)O)NC(=O)[C@@H](CCc2ccccc2)NC(=O)[C@H](Cc2ccc(-c3ccccc3)cc2)NC(=O)[C@@H](Cc2cccs2)N1 [Compound 300] | – | – | – | < 10 | – | 10 to 50

Second part, led by results:

Row | IC50 [1, 3] [µM] | Structure (SMILES) | inhibition at 5 µM [2, 4] [%] | inhibition at 10 µM [2, 5] [%] | IC50 [1, 6] [µM] | inhibition at 5 µM [2] [%] | inhibition at 10 µM [2] [%]
8 | < 10 | CC(C)(NC(=O)[C@@H]1Cc2ccc(cc2)OCC(=O)N[C@H](Cc2cccs2)C(=O)N[C@@H](Cc2ccc(-c3ccccc3)cc2)C(=O)N[C@H](CCc2ccccc2)C(=O)N1)C(=O)O [Compound 297] | < 10 | < 10 | – | – | –
9 | < 10 | O=C(O)CCCNC(=O)[C@@H]1Cc2ccc(cc2)OCC(=O)N[C@H](Cc2cccs2)C(=O)N[C@@H](Cc2ccc(-c3ccccc3)cc2)C(=O)N[C@H](CCc2ccccc2)C(=O)N1 [Compound 298] | < 10 | < 10 | – | – | –
10 | < 10 | O=C(O)CCNC(=O)[C@@H]1Cc2ccc(cc2)OCC(=O)N[C@H](Cc2cccs2)C(=O)N[C@@H](Cc2ccc(-c3ccccc3)cc2)C(=O)N[C@H](CCc2ccccc2)C(=O)N1 [Compound 301] | < 10 | < 10 | – | – | –
11 | < 10 | C[C@H](NC(=O)[C@@H]1Cc2ccc(cc2)OCC(=O)N[C@H](Cc2cccs2)C(=O)N[C@@H](Cc2ccc(-c3ccccc3)cc2)C(=O)N[C@H](CCc2ccccc2)C(=O)N1)C(=O)O [Compound 302] | 10 to 50 | 10 to 50 | – | – | –
12 | < 10 | C[C@@H](NC(=O)[C@@H]1Cc2ccc(cc2)OCC(=O)N[C@H](Cc2cccs2)C(=O)N[C@@H](Cc2ccc(-c3ccccc3)cc2)C(=O)N[C@H](CCc2ccccc2)C(=O)N1)C(=O)O [Compound 305] | – | < 10 | – | – | –
13 | < 10 | CC[C@H](C)[C@H](NC(=O)[C@@H]1Cc2ccc(cc2)OCC(=O)N[C@H](Cc2cccs2)C(=O)N[C@@H](Cc2ccc(-c3ccccc3)cc2)C(=O)N[C@H](CCc2ccccc2)C(=O)N1)C(=O)O [Compound 307] | – | < 10 | – | – | –

— patent US8338565B2, “Macrocyclic compounds for inhibition of tumor necrosis factor alpha” (Ensemble Therapeutics Corporation, priority 2008, dated 2012)
